The text below walks through data of ChEMBL document CHEMBL5260845, “Flavone-based arylamides as potential anticancers: Design, synthesis and in vitro cell-based/cell-free evaluations” (2020).

Experiment [1] deals with SNB-19. The experiment is described as follows: Antiproliferative activity against human SNB-19 cells assessed as cell growth inhibition at 10 uM by SRB assay. The experiment is classed as functional, cell-based. On the technique in general: The SRB assay estimates cell density from bound dye.
Experiment [2] has as its system RPMI-8226. Briefly: Antiproliferative activity against human RPMI-8226 cells assessed as cell growth inhibition at 10 uM by SRB assay relative to control. In kind it is functional.
A further experiment has as its system SF-295. Briefly: Antiproliferative activity against human SF-295 cells assessed as cell growth inhibition at 10 uM by SRB assay. The experiment is classed as functional, cell-based.
Experiment [3] relates to SF-539. The experiment is described as follows: Antiproliferative activity against human SF-539 cells assessed as cell growth inhibition at 10 uM by SRB assay. In kind it is functional, cell-based.
Another experiment concerns U-251. The experiment is described as follows: Antiproliferative activity against human U-251 cells assessed as cell growth inhibition at 10 uM by SRB assay. The experiment is classed as functional, cell-based.
In a further experiment the test system is SF-268. The experiment is described as follows: Antiproliferative activity against human SF-268 cells assessed as cell growth inhibition at 10 uM by SRB assay. In kind it is functional, cell-based.
For experiment [4], the system named is SNB-75. The experiment is described as follows: Antiproliferative activity against human SNB-75 cells assessed as cell growth inhibition at 10 uM by SRB assay. The experiment is classed as functional, cell-based.
The subject of experiment [5] is SF-539. Briefly: Antiproliferative activity against temozolomide resistant human SF-539 cells assessed as cell growth inhibition at 10 uM by SRB assay. In kind it is functional, cell-based.
Experiment [6] relates to SNB-75. The experiment is described as follows: Antiproliferative activity against temozolomide resistant human SNB-75 cells assessed as cell growth inhibition at 10 uM by SRB assay. The experiment is classed as functional, cell-based.
A further experiment relates to M14. Briefly: Antiproliferative activity against human M14 cells assessed as cell growth inhibition at 10 uM by SRB assay. The experiment is classed as functional, cell-based.
In the next experiment the test system is LOX IMVI. Briefly: Antiproliferative activity against human LOX IMVI cells assessed as cell growth inhibition at 10 uM by SRB assay. In kind it is functional, cell-based.
Another experiment deals with CCRF-CEM. The experiment is described as follows: Antiproliferative activity against human CCRF-CEM cells assessed as cell growth inhibition at 10 uM by SRB assay. In kind it is functional, cell-based.
In another experiment the test system is HL-60. The experiment is described as follows: Antiproliferative activity against human HL-60 cells assessed as cell growth inhibition at 10 uM by SRB assay. The experiment is classed as functional, cell-based.
The test system of another experiment is K562. The experiment is described as follows: Antiproliferative activity against human K562 cells assessed as cell growth inhibition at 10 uM by SRB assay. In kind it is functional, cell-based.
For the next experiment, the system named is MOLT-4. Briefly: Antiproliferative activity against human MOLT-4 cells assessed as cell growth inhibition at 10 uM by SRB assay. In kind it is functional, cell-based.
Experiment [7] concerns RPMI-8226. The experiment is described as follows: Antiproliferative activity against human RPMI-8226 cells assessed as cell growth inhibition at 10 uM by SRB assay. The experiment is classed as functional, cell-based.
The subject of another experiment is SR. The experiment is described as follows: Antiproliferative activity against human SR cells assessed as cell growth inhibition at 10 uM by SRB assay. The experiment is classed as functional, cell-based.
A further experiment deals with EKVX. The experiment is described as follows: Antiproliferative activity against human EKVX cells assessed as cell growth inhibition at 10 uM by SRB assay. The experiment is classed as functional.
The next experiment deals with HOP-92. The experiment is described as follows: Antiproliferative activity against human HOP-92 cells assessed as cell growth inhibition at 10 uM by SRB assay. In kind it is functional, cell-based.
In a further experiment the test system is NCI-H226. The experiment is described as follows: Antiproliferative activity against human NCI-H226 cells assessed as cell growth inhibition at 10 uM by SRB assay. In kind it is functional.
The next experiment relates to NCI-H23. Briefly: Antiproliferative activity against human NCI-H23 cells assessed as cell growth inhibition at 10 uM by SRB assay. The experiment is classed as functional.
The subject of the next experiment is NCI-H522. Briefly: Antiproliferative activity against human NCI-H522 cells assessed as cell growth inhibition at 10 uM by SRB assay. In kind it is functional, cell-based.
In experiment [8] the test system is HCT-116. Briefly: Antiproliferative activity against human HCT-116 cells assessed as cell growth inhibition at 10 uM by SRB assay relative to control. In kind it is functional.
Another experiment concerns Malme-3M. The experiment is described as follows: Antiproliferative activity against human Malme-3M cells assessed as cell growth inhibition at 10 uM by SRB assay. The experiment is classed as functional, cell-based.
A further experiment relates to SK-MEL-2. The experiment is described as follows: Antiproliferative activity against human SK-MEL-2 cells assessed as cell growth inhibition at 10 uM by SRB assay relative to control. The experiment is classed as functional. Particulars: Homo sapiens, SK-MEL-2, dose 10 µM.
Another experiment deals with ACHN. Briefly: Antiproliferative activity against human ACHN cells assessed as inhibition of cell growth at 10 uM by SRB assay relative to control. In kind it is functional. Particulars: pooled result: one value given for 2 cell lines, strains, targets or settings.
For another experiment, the system named is RXF 393. The experiment is described as follows: Antiproliferative activity against human RXF 393 cells assessed as inhibition of cell growth at 10 uM by SRB assay relative to control. The experiment is classed as functional.
Another experiment deals with CAKI-1. Briefly: Antiproliferative activity against human CAKI-1 cells assessed as inhibition of cell growth at 10 uM by SRB assay relative to control. The experiment is classed as functional.
A further experiment has as its system T47D. The experiment is described as follows: Antiproliferative activity against estrogen receptor positive human T47D cells assessed as inhibition of cell growth at 10 uM by SRB assay relative to control. The experiment is classed as functional.
Experiment [9] relates to Hs-578T. Briefly: Antiproliferative activity against human Hs-578T cells assessed as inhibition of cell growth at 10 uM by SRB assay. The experiment is classed as functional, cell-based.
Experiment [10] can be described thus: Antiproliferative activity against human hematologic cancer cells assessed as cell growth inhibition at 10 uM by SRB assay relative to control. In kind it is functional.
Another experiment deals with Renal cancer cell line. The experiment is described as follows: Antiproliferative activity against human renal cancer cells assessed as cell growth inhibition at 10 uM by SRB assay relative to control. The experiment is classed as functional.
Experiment [11] in a line: Antiproliferative activity against human colon cancer cells assessed as cell growth inhibition at 10 uM by SRB assay relative to control. In kind it is functional. Particulars: Colon carcinoma cell.
A further experiment concerns Prostatic carcinoma cell. Briefly: Antiproliferative activity against human prostatic carcinoma cells assessed as cell growth inhibition at 10 uM by SRB assay relative to control. In kind it is functional.
The test system of the next experiment is NCI-H460. The experiment is described as follows: Antiproliferative activity against human NCI-H460 cells assessed as cell growth inhibition at 10 uM by SRB assay relative to control. The experiment is classed as functional.
The subject of the next experiment is COLO 205. The experiment is described as follows: Antiproliferative activity against human COLO 205 cells assessed as cell growth inhibition at 10 uM by SRB assay. In kind it is functional, cell-based.
The subject of the next experiment is HCC 2998. Briefly: Antiproliferative activity against human HCC 2998 cells assessed as cell growth inhibition at 10 uM by SRB assay. The experiment is classed as functional, cell-based.
Experiment [12] concerns HCT-116. Briefly: Antiproliferative activity against human HCT-116 cells assessed as cell growth inhibition at 10 uM by SRB assay. The experiment is classed as functional, cell-based.
In a further experiment the test system is HCT-15. The experiment is described as follows: Antiproliferative activity against human HCT-15 cells assessed as cell growth inhibition at 10 uM by SRB assay. In kind it is functional, cell-based.
In another experiment the test system is HT-29. Briefly: Antiproliferative activity against human HT-29 cells assessed as cell growth inhibition at 10 uM by SRB assay. In kind it is functional, cell-based.
The next experiment relates to KM12. Briefly: Antiproliferative activity against human KM12 cells assessed as cell growth inhibition at 10 uM by SRB assay. The experiment is classed as functional, cell-based.
Another experiment deals with SW-620. The experiment is described as follows: Antiproliferative activity against human SW620 cells assessed as cell growth inhibition at 10 uM by SRB assay. The experiment is classed as functional, cell-based.
Experiment [13] concerns SNB-19. Briefly: Antiproliferative activity against temozolomide resistant human SNB-19 cells assessed as cell growth inhibition at 10 uM by SRB assay. The experiment is classed as functional, cell-based.
A further experiment concerns UACC-62. The experiment is described as follows: Antiproliferative activity against human UACC-62 cells assessed as cell growth inhibition at 10 uM by SRB assay relative to control. In kind it is functional.
For another experiment, the system named is OVCAR-4. Briefly: Antiproliferative activity against human OVCAR-4 cells assessed as cell growth inhibition at 10 uM by SRB assay relative to control. In kind it is functional.
Another experiment deals with OVCAR-8. The experiment is described as follows: Antiproliferative activity against human OVCAR-8 cells assessed as cell growth inhibition at 10 uM by SRB assay relative to control. The experiment is classed as functional.
For another experiment, the system named is 786-0. Briefly: Antiproliferative activity against human 786-0 cells assessed as inhibition of cell growth at 10 uM by SRB assay relative to control. The experiment is classed as functional.
The test system of the next experiment is SN12C. The experiment is described as follows: Antiproliferative activity against human SN12C cells assessed as inhibition of cell growth at 10 uM by SRB assay relative to control. The experiment is classed as functional.
Experiment [14] concerns Hs-578T. Briefly: Antiproliferative activity against human Hs-578T cells assessed as inhibition of cell growth at 10 uM by SRB assay relative to control. The experiment is classed as functional.
The next experiment has as its system Breast carcinoma cell. Briefly: Antiproliferative activity against human breast cancer cells assessed as cell growth inhibition at 10 uM by SRB assay relative to control. The settings on record: pooled result: one value given for 3 cell lines, strains, targets or settings. The experiment is classed as functional.
The test system of another experiment is Lung cancer cell line. The experiment is described as follows: Antiproliferative activity against human lung cancer cells assessed as cell growth inhibition at 10 uM by SRB assay relative to control. In kind it is functional.
Experiment [15] can be described thus: Antiproliferative activity against human brain cancer cells assessed as cell growth inhibition at 10 uM by SRB assay relative to control. In kind it is functional.

As usually defined, the inhibition is the drop in the measured response relative to a control, in per cent.

Calls of active or inactive are those of the source. The rule behind the calls is not given here.

Take `COc1cc2oc(-c3cccc(NC(=O)c4cccc(Br)c4)c3)cc(=O)c2c(O)c1OC`: the inhibition result with SNB-19 [1], in the experiment on SF-295, in the experiment with SF-539 [3], with U-251, in the experiment with SF-268 and in the experiment with SNB-75 [4] was “inactive” throughout. In addition, the inhibition at 10 µM with RPMI-8226 [2] came to 82.6%.
With `COc1cc2oc(-c3cccc(C(=O)Nc4ccc(C)cc4)c3)cc(=O)c2c(O)c1OC`, the inhibition at 10 µM with RPMI-8226 [2] turned out to be 82.6%. In addition, the inhibition entry with SF-539 [5] and in the experiment with SNB-75 [6] was “Active” in each case.
Regarding `COc1cc2oc(-c3cccc(NC(=O)c4ccc(Cl)cc4)c3)cc(=O)c2c(OC)c1OC`, the inhibition entry in the experiment with M14, in the experiment with LOX IMVI, in the experiment on CCRF-CEM, with HL-60, in the experiment with K562 and with MOLT-4 was “Active” throughout. Moreover, the inhibition result in the experiment on RPMI-8226 [7], with SR, in the experiment on HOP-92, in the experiment on NCI-H522, in the experiment with SF-295 and in the experiment on Malme-3M was “Active” in each case. For the same compound, the inhibition entry in the experiment with Hs-578T [9] is “Active”. For the same compound, the inhibition at 10 µM with EKVX was less than 50%; with NCI-H226, less than 50%; with NCI-H23, less than 50%; with HCT-116 [8], 88%; in the experiment on SK-MEL-2, no more than 46%; in the experiment with ACHN, 51.1%. Further, the inhibition at 10 µM is 51.1% in the experiment with RXF 393; 51.1% in the experiment on CAKI-1; 62.2% in the experiment with T47D; greater than 50% in [10]; greater than 50% in the experiment with Renal cancer cell line; greater than 50% in experiment [11]. Also, in the experiment with Prostatic carcinoma cell, the inhibition at 10 µM is greater than 50%.
`COc1cc2oc(-c3cccc(C(=O)Nc4ccc(Cl)cc4)c3)cc(=O)c2c(O)c1OC`: the inhibition at 10 µM with RPMI-8226 [2] came to 82.6%; in the experiment with NCI-H460 it was 79.5%; with UACC-62, 57.3%; in the experiment with OVCAR-4 it was 130%; in the experiment on OVCAR-8, 83.7%; in the experiment on 786-0 it was 53%. The inhibition at 10 µM in the experiment on ACHN was 53%; in the experiment on RXF 393, 53%; with SN12C, 53%; in the experiment on Hs-578T [14], 93.3%; in the experiment on Renal cancer cell line, greater than 50%; with Breast carcinoma cell it was greater than 50%. In addition, the inhibition at 10 µM (in the experiment on Lung cancer cell line; in experiment [15]) was greater than 50% in each case. In addition, the inhibition entry in the experiment on COLO 205, in the experiment with HCC 2998, with HCT-116 [12], in the experiment with HCT-15, in the experiment on HT-29 and in the experiment on KM12 was “Active” in each case. The inhibition result in the experiment on SW-620 and with SNB-19 [13] was “Active” in each case.
